Test results from patent US6071919A, “Zwitterionic compositions and methods as biological response modifiers” (priority 1998, dated 2000).

Legend:
[1] = system: Herpes Zoster; assay: Example Nine: patient with painful Herpes Zoster; format: in vivo, human; settings: 1000 mg i.v. daily
Experimental: A person with painful Herpes Zoster unresponsive to conventional treatment was given 1000 mg intravenously of zwitterionic piperazine daily.

[2] = ADA: data of Schwarzenbach et al. (1955); cited from earlier work
[3] = system: HIV; assay: Example Ten: patient with HIV infection and HIV associated polyneuropathy; format: in vivo; settings: 5000 mg i.v. daily, after thirty days
Experimental: A person with documented HIV infection had HIV associated polyneuropathy. They could not raise their legs without assistance. They were given 5000 mg intravenously of zwitterionic piperazine (HEPES) daily for thirty days. […] Their cluster determinates had risen and sensation and proprioception were improved.

[4] = Treatment of myasthenia gravis patients with HEPES alone; format: in vivo, human; settings: 300 mg/kg to 1000 mg/kg daily
Experimental: To date, more than twenty-five patients have been treated with 300 mg/kg to 1000 mg/kg HEPES daily (no other agents or additional compositions).

[5] = Observations in HEPES-treated dogs; format: in vivo

For O=S(=O)(O)CCN1CCN(CCO)CC1 [HEPES, N-2 Hydroxyethylpiperazine-N'-2 Ethane Sulfonic Acid], the pain ([1]; second day) was “the pain had diminished, so that other analgesia was not required”, the lesions ([1]; seventh day) was “the lesions had healed” and the pain ([1]; seventh day) was “no pain at all”. For the same compound, the lesions ([1]; third day) was “the lesions had crusted and were clearly healing”, the “Metal-Buffer Binding Constants Log KM, Ca^2+” value [2] was “Negl” and the “Total viral load determined by PCR” value [3] was “decreased”. For the same compound, the “ability to raise legs” value [3] was “could raise their legs without assistance”, the cluster determinates [3] was “had risen” and the sensation and proprioception [3] was “improved”. The “reduction in disease activity” value [4] was 25%-50%, the behaviour following injections ([5]; all dogs) was “all dogs became calm following injections” and the “hematomas at the injection sites” value ([5]; all treated dogs) was “rapid resolution of hematomas at the injection sites”. For the same compound, the diuresis ([5]; certain dosages) was “marked diuresis at certain dosages”, the vascular integrity ([5]; treated groups) was “strong evidence of improved vascular integrity” and the respiratory infections ([5]; while being treated, many in untreated group did) was “no animals in the treated group had any respiratory infections while being treated”.
